Tests used:
[1] = target: T1, recombinant human KDM5B (Homo sapiens, UniProt Q9UGL1); experiment: 14CO2 capture enzymatic assay (decarboxylation of [1-14C] αKG), KDM5B; type: biochemical; conditions: 10 μM [1-14C] αKG, 90 μM non-labeled αKG, 50 μM peptide substrate, 37° C., 1 hour, final 1% DMSO
T1 sequence (Q9UGL1 374-755 limits assumed): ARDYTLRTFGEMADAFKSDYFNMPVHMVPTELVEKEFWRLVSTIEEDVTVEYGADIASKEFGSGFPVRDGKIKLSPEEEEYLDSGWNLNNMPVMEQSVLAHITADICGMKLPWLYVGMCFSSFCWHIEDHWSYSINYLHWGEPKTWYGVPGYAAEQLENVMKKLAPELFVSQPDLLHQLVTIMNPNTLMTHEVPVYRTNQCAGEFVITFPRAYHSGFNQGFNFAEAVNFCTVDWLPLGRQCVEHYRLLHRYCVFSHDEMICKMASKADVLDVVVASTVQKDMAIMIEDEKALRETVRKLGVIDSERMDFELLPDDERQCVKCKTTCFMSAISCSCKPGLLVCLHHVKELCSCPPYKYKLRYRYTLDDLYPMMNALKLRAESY
Description: (§1) Enzymatic activity was determined based on the capture of ^14CO2 released by the decarboxylation of [1-^14C] αKG (Zhang et al., Anal. Biochem., 1998, vol. 271, pp. 137-142). [1-^14C]alphaketoglutarate (αKG) was from Perkin-Elmer, H3K4me3 and H3K9me3 peptides were from Mimotopes. All other reagents were from Sigma. Reaction mixtures included the following components: Fe(SO4), [1-^14C] αKG, non-labeled αKG, ascorbate, peptide-substrate (H3K4me3: H-ARTK(me3)QTARKSTGGKAPRKQLA-OH. H3K9me3: H-ARTKQTARK(me3)STGGKAPRKQLA-OH), NaCl, Tween-20 and catalase in 25 mM HEPES buffer, pH 7.4. The enzymatic reactions were initiated by addition of recombinant human KDM5B or KDM4A enzyme (truncated enzyme produced in house by method and using sequence disclosed in Ng et al, Nature 448:87-91, 2007). The reactions were performed in 96-well microtiter plates (20 μL total assay volume) (Greiner #650201). ^14CO2 was captured on a glass fiber filter paper (Cat. No. IH-201-A, Inotech Biosystems International) soaked with saturated Ba(OH)2 that was laid on top of the 96-well plate. A microtiter plate sealer film (Thermal Seal cat #T7961100) was applied to the filter paper. The plate and filter paper were sandwiched between two custom made aluminum plates (Advanced Component Manufacturing, Burlingame, CA) and transferred to a 37° C. oven and allowed to incubate for 1 hour. After incubation, the filter paper was dried in a 103° C. oven for 40-60 minutes. To determine percent turnover, aliquots of the reaction mixture were spotted onto the filter paper and the filter paper was dried again. The dry filter paper was exposed to a storage phosphor screen for 24-72 hours and the images recorded using a Typhoon FLA 7000 Imager (Amersham Biosciences, Piscataway, NJ). Integrated spot intensities corresponding to control reactions lacking the enzyme were subtracted from integration results for enzyme containing reactions and data were converted to enzyme dependent percent ^14CO2 release. All enzymatic reactions were run in duplicates.
(§2) For IC50 determination, a 3-fold dilution series of compound was prepared and added to the reaction mixture (final 1% DMSO, v/v) prior to enzyme addition. The final reagent concentrations were: 10 μM Fe(SO4), 10 μM [1-^14C] αKG, 90 μM non-labeled αKG, 2 mM ascorbate, 50 μM peptide substrate, 75 mM NaCl, 0.01% Tween-20 and ˜2 units/μL catalase. IC50s were determined by non-linear fitting using Grafit version 7.0.

[2] = target: T2, recombinant human KDM4A (Homo sapiens, UniProt O75164); experiment: 14CO2 capture enzymatic assay (decarboxylation of [1-14C] αKG), KDM4A; type: biochemical; conditions: 10 μM [1-14C] αKG, 90 μM non-labeled αKG, 50 μM peptide substrate, 37° C., 1 hour, final 1% DMSO
T2 construct: made in house
T2 sequence (O75164 1-359 limits assumed): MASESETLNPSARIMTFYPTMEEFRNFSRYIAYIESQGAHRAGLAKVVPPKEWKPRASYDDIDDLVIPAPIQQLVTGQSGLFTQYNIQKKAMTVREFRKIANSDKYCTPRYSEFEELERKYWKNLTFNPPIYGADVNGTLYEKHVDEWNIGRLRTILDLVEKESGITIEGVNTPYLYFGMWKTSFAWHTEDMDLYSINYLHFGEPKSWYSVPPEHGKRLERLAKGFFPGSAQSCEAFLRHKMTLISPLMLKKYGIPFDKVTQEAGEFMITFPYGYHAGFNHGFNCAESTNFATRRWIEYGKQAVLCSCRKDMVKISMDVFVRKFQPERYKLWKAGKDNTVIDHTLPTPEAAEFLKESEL
Description: as §1, §2

Row | SMILES | IC50 [1] [nM] | IC50 [2] [nM]
1 | N#Cc1cc(Cc2cccc(F)c2)nc(C(=O)CCC(=O)O)c1O [Example 42, 4-[4-Cyano-6-(3-fluoro-benzyl)-3-hydroxy-pyridin-2-yl]-4-oxo-butyric acid] | 210 | 32000
2 | Cc1c(C#N)cccc1-c1cc(C#N)c(O)c(C(=O)CCC(=O)O)n1 [Example 98, 4-[4-Cyano-6-(3-cyano-2-methyl-phenyl)-3-hydroxy-pyridin-2-yl]-4-oxo-butyric acid] | 300 | > 40000
3 | N#Cc1cc(Cc2ccc(OC(F)(F)F)cc2)nc(C(=O)CCC(=O)O)c1O [Example 47, 4-[4-Cyano-3-hydroxy-6-(4-trifluoromethoxy-benzyl)-pyridin-2-yl]-4-oxo-butyric acid] | 300 | > 40000
4 | N#Cc1cccc(Cc2cc(C#N)c(O)c(C(=O)CCC(=O)O)n2)c1 [Example 45, 4-[4-Cyano-6-(3-cyano-benzyl)-3-hydroxy-pyridin-2-yl]-4-oxo-butyric acid] | 540 | > 40000
5 | N#Cc1cc(Cc2ccc(C(F)(F)F)cc2)nc(C(=O)CCC(=O)O)c1O [Example 39, 4-[4-Cyano-3-hydroxy-6-(4-trifluoromethyl-benzyl)-pyridin-2-yl]-4-oxo-butyric acid] | 130 | > 40000
6 | Cc1cccc(C)c1Cc1cc(C#N)c(O)c(C(=O)CCC(=O)O)n1 [Example 54, 4-[4-Cyano-6-(2,6-dimethyl-benzyl)-3-hydroxy-pyridin-2-yl]-4-oxo-butyric acid] | 230 | 4900
7 | Cc1c(F)cccc1-c1cc(C#N)c(O)c(C(=O)CCC(=O)O)n1 [Example 80, 4-[4-Cyano-6-(3-fluoro-2-methyl-phenyl)-3-hydroxy-pyridin-2-yl]-4-oxo-butyric acid] | 390 | > 40000
8 | N#Cc1cc(Cc2c(Cl)cc(Cl)cc2Cl)nc(C(=O)CCC(=O)O)c1O [Example 144, 4-[4-Cyano-3-hydroxy-6-(2,4,6-trichloro-benzyl)-pyridin-2-yl]-4-oxo-butyric acid] | 180 | 28000
9 | N#Cc1cc(Cc2ccc(F)cc2)nc(C(=O)CCC(=O)O)c1O [Example 40, 4-[4-Cyano-6-(4-fluoro-benzyl)-3-hydroxy-pyridin-2-yl]-4-oxo-butyric acid] | 60 | 17000
10 | N#Cc1cc(Oc2ccc(F)cc2)cc(C(=O)CCC(=O)O)c1O [Example 142, 4-[3-Cyano-5-(4-fluoro-phenoxy)-2-hydroxy-phenyl]-4-oxo-butyric acid] | 280 | > 40000
11 | N#Cc1cc(-c2ccccc2)nc(C(=O)CCC(=O)O)c1O [Example 7, 4-(4-Cyano-3-hydroxy-6-phenyl-pyridin-2-yl)-4-oxo-butyric acid] | 210 | > 40000
12 | N#Cc1cc(Cc2c(Cl)cccc2C(F)(F)F)nc(C(=O)CCC(=O)O)c1O [Example 59, 4-[6-(2-Chloro-6-trifluoromethyl-benzyl)-4-cyano-3-hydroxy-pyridin-2-yl]-4-oxo-butyric acid] | 330 | > 40000
13 | N#Cc1cc(-c2cccc3cccnc23)nc(C(=O)CCC(=O)O)c1O [Example 116, 4-(4-Cyano-3-hydroxy-6-quinolin-8-yl-pyridin-2-yl)-4-oxo-butyric acid] | 100 | > 40000
14 | COc1ccc(-c2cc(C#N)c(O)c(C(=O)CCC(=O)O)n2)cc1 [Example 9, 4-[4-Cyano-3-hydroxy-6-(4-methoxy-phenyl)-pyridin-2-yl]-4-oxo-butyric acid] | 160 | > 40000
15 | Cc1ccccc1Oc1cc(C#N)c(O)c(C(=O)CCC(=O)O)c1 [Example 140, 4-(3-Cyano-2-hydroxy-5-o-tolyloxy-phenyl)-4-oxo-butyric acid] | 330 | > 40000
16 | Cc1ccc(C#N)cc1-c1cc(C#N)c(O)c(C(=O)CCC(=O)O)n1 [Example 100, 4-[4-Cyano-6-(5-cyano-2-methyl-phenyl)-3-hydroxy-pyridin-2-yl]-4-oxo-butyric acid] | 430 | > 40000
17 | Cc1cccc(F)c1-c1cc(C#N)c(O)c(C(=O)CCC(=O)O)n1 [Example 88, 4-[4-Cyano-6-(2-fluoro-6-methyl-phenyl)-3-hydroxy-pyridin-2-yl]-4-oxo-butyric acid] | 710 | > 40000
18 | COc1cccc(C(F)(F)F)c1Cc1cc(C#N)c(O)c(C(=O)CCC(=O)O)n1 [Example 61, 4-[4-Cyano-3-hydroxy-6-(2-methoxy-6-trifluoromethyl-benzyl)-pyridin-2-yl]-4-oxo-butyric acid] | 570 | > 40000
19 | Cc1ccc(-c2cc(C#N)c(O)c(C(=O)CCC(=O)O)n2)c2ccccc12 [Example 113, 4-[4-Cyano-3-hydroxy-6-(4-methyl-naphthalen-1-yl)-pyridin-2-yl]-4-oxo-butyric acid] | 230 | > 40000
20 | N#Cc1cc(-c2ccc(Cl)cc2)cc(C(=O)CCC(=O)O)c1O [Example 118, 4-(4′-Chloro-5-cyano-4-hydroxy-biphenyl-3-yl)-4-oxo-butyric acid] | 160 | > 40000
21 | Cc1cccc(C)c1C(=O)N(C)c1cc(C#N)c(O)c(C(=O)CCC(=O)O)n1 [Example 130, 4-{4-Cyano-6-[(2,6-dimethyl-benzoyl)-N-methyl-amino]-3-hydroxy-pyridin-2-yl}-4-oxo-butyric acid] | 3200 | > 40000
22 | N#Cc1cc(-c2ccccc2)cc(C(=O)CCC(=O)O)c1O [Example 104, 4-(5-Cyano-4-hydroxy-biphenyl-3-yl)-4-oxo-butyric acid] | 460 | > 40000
23 | N#Cc1cc(-c2cccc(-c3ccccc3)c2)nc(C(=O)CCC(=O)O)c1O [Example 74, 4-(6-Biphenyl-3-yl-4-cyano-3-hydroxy-pyridin-2-yl)-4-oxo-butyric acid] | 60 | > 40000
24 | COc1cccc(-c2cc(C#N)c(O)c(C(=O)CCC(=O)O)n2)c1Cl [Example 114, 4-[6-(2-Chloro-3-methoxy-phenyl)-4-cyano-3-hydroxy-pyridin-2-yl]-4-oxo-butyric acid] | 140 | 10000
25 | N#Cc1cc(Cc2c(Cl)ccc(Cl)c2Cl)nc(C(=O)CCC(=O)O)c1O [Example 156, 4-[4-Cyano-3-hydroxy-6-(2,3,6-trichloro-benzyl)-pyridin-2-yl]-4-oxo-butyric acid] | 70 | 11000
26 | N#Cc1cc(Cc2c(F)cccc2F)nc(C(=O)CCC(=O)O)c1O [Example 53, 4-[4-Cyano-6-(2,6-difluoro-benzyl)-3-hydroxy-pyridin-2-yl]-4-oxo-butyric acid] | 250 | > 40000
27 | N#Cc1cc(-c2ccccc2Cl)cc(C(=O)CCC(=O)O)c1O [Example 119, 4-(2′-Chloro-5-cyano-4-hydroxy-biphenyl-3-yl)-4-oxo-butyric acid] | 280 | > 40000
28 | Cc1ccc(Cc2cc(C#N)c(O)c(C(=O)CCC(=O)O)n2)cc1 [Example 38, 4-[4-Cyano-3-hydroxy-6-(4-methyl-benzyl)-pyridin-2-yl]-4-oxo-butyric acid] | 120 | > 40000

From patent US20240002344A1, “COMPOUNDS, COMPOSITIONS AND METHODS FOR HISTONE LYSINE DEMETHYLASE INHIBITION” (FibroGen, Inc., priority 2020, published 2024)
